Results on 27 compounds are retold here after US7553642B2, “Branched neutral amino acid transporters acting as single molecule” (Human Cell Systems, Inc., priority 2003, dated 2009).

Entries after “also recorded” stand apart in the source; their conditions may differ. Where two headings read alike, the source gives them in different places.

Holding throughout (format): cell-based
In assay [1] the target is T1, human LAT3 (Homo sapiens, UniProt O75387).
T1 construct: An expression plasmid vector pSPORT1 containing cDNA of human LAT3 was cleaved by a restriction enzyme NotI, and cRNA; expressed in transfected cells; host or cells: Xenopus laevis oocytes injected with cRNA
T1 sequence (O75387 1-559): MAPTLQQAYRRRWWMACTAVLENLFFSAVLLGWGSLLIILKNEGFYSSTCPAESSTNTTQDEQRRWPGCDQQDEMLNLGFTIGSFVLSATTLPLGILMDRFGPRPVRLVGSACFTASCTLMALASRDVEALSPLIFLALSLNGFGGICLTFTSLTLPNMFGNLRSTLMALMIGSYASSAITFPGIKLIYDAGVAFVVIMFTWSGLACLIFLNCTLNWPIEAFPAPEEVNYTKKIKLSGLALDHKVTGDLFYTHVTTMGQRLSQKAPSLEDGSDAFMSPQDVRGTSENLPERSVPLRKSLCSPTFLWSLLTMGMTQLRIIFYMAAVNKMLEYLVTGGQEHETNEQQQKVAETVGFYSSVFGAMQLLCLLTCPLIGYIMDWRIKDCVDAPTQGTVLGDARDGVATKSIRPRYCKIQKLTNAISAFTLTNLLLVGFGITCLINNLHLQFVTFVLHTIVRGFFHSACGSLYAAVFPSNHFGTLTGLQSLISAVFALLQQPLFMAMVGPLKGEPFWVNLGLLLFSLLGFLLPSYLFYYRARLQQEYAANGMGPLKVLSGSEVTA
Briefly: Inhibition of 14C-leucine uptake by Xenopus oocytes injected with human LAT3 cRNA.

Assay [2] deals with T2, mouse LAT4 (Mus musculus, UniProt Q8CGA3, K402E/P237S).
T2 construct: An expression plasmid vector pcDNA 3.1(+) containing cDNA of mouse LAT4 was cleaved by a restriction enzyme XbaI; expressed in transfected cells; host or cells: Xenopus laevis oocytes injected with cRNA (from pcDNA3.1(+), IMAGE clone 2235970)
Briefly: Inhibition of 14C-leucine uptake by oocytes injected with mouse LAT4 cRNA. The following applies: 14C-leucine 100 μM, 10 mM unlabeled compound, Na+-free uptake solution, Xenopus oocytes. As for the experimental part:
In this regard, uptake of ^14C-leucine (100 μM) into the oocytes was measured in the presence or the absence of 10 mM of various compounds (unlabeled) in the Na^+-free uptake solution.

Assay [3] deals with T2, mouse LAT4. Briefly: Uptake of radiolabeled amino acids by Xenopus oocytes injected with mouse LAT4 cRNA. The following applies: 14C-labeled substrate in place of 14C-leucine. As for the experimental part: The oocytes was injected with 25 ng of cRNA of the mouse LAT4 gene to be expressed thereby, and cultured for 3 days.
An experiment of leucine uptake was carried out as follows according to the above-described method in Example 3 (1). That is, the oocytes injected with cRNA of the mouse LAT4 gene or water as a control were cultured for 10 minutes in the Na^+-free uptake solution containing […] (100 μM) (refer to Example 3 (1)), and measured the uptake of radioactivity into the cells.
The leucine uptake was conducted at the leucin concentrations of 0.01, 0.03, 0.1, 0.3, 1, 3 and 10 mM, using the oocytes injected with cRNA of the mouse LAT4 gene according to the above-described method in Example 3 (1). […] In addition, it was clarified that the leucine transport mediated by LAT4 is composed of a high affinity component and a low affinity component, just like the leucin uptake mediated by LAT3.
An uptake experiment of various amino acids and amino acid analogs was carried out using the oocytes injected with cRNA of the mouse LAT4 gene according to the above-described method in Example 3 (1). In this regard, in place of ^14C-leucine, various radiolabeled amino acids were utilized.

Assay [4] addresses T1, human LAT3. Briefly: Uptake of radiolabeled amino acids by Xenopus oocytes injected with human LAT3 cRNA. The following applies: 14C-labeled substrate in place of 14C-leucine, Na+-free uptake solution, 10 minutes. On the procedure:
The substrate uptake by the injected oocytes using leucine as a substrate was carried out according to the method described by Kanai et al. (Kanai and Hediger, Nature, Vol. 360, 467-471 (1992)), as follows. The oocytes was cultured for 30 minutes in the Na^+-free uptake solution (100 mM of choline chloride, 2 mM of potassium chloride, 1.8 mM of calcium chloride, 1 mM of magnesium chloride, 5 mM of HEPES, pH 7.4) using ^14C-leucine (100 μM) as a substrate, and uptake rate of the substrate was measured by counting radioactivity in the cell.
The oocytes was injected with 25 ng of human LAT3 gene cRNA to be expressed thereby, and cultured for 3 days.
The experiment of the leucine uptake was carried out as follows according to the above described method in Example 1 (1). That is, the oocytes injected with the cRNA of the human LAT3 gene or water as a control were cultured for 10 minutes in Na^+-free uptake solution containing ^14C-leucine (100 μM) (refer to Example 1 (1)), and measured uptake of radioactivity into the cells.
The leucine uptake was conducted at the leucin concentrations of 1, 3, 10, 30, 60, 100, 200, 400, 1000, 2000 and 3000 μM using the oocytes injected with cRNA of the human LAT3 gene according to the above-described method in Example 3 (1). […] In addition, it was clarified that the leucine transport mediated by LAT3 is composed of high affinity component and low affinity component (FIG. 6, inserted figure).
An uptake experiment of various amino acids and amino acid analogs was carried out using the oocytes injected with cRNA of the human LAT3 gene according to the above-described method in Example 3 (1), provided that various radiolabeled amino acids were utilized in place of the ^14C-leucine.

Assay [5] concerns the target T1, human LAT3. As to the kind of experiment: Influence of N-ethylmaleimide on leucine uptake by oocytes expressing human LAT3. As to conditions: pretreatment with 5 mM for 15 minutes; 14C-L-leucine 100 μM, 10 minutes. On the procedure: Each of the oocytes injected with cRNA of the human LAT3 gene, injected with cRNA of the human LAT3 gene and cRNA of 4F2hc gene, or injected with water as a control was cultured for 10 minutes in the Na^+-free uptake solution containing ^14C-L-leucine (100 μM) (refer to Example 3 (2)), and uptake of radioactivity into the oocytes was measured according to the method described in Example 3 (1). In this regard, influences of pretreatment with 5 mM of N-ethylmaleimide for 15 minutes, and the presence or absence of 5 mM of N-ethylmaleimide in the uptake solution on the ^14C-leucine uptake were investigated.

The subject of a further assay is LAT1. As to the kind of experiment: Influence of N-ethylmaleimide on leucine uptake mediated by LAT1. The following applies: 5 mM; 14C-L-leucine 100 μM, 10 minutes.
The mark [6] stands for this setting: 14C-leucine 100 μM, 10 mM unlabeled compound, Na+-free uptake solution, 10 minutes, Xenopus oocytes.

T2 sequence (Q8CGA3 whole entry P237S/K402E): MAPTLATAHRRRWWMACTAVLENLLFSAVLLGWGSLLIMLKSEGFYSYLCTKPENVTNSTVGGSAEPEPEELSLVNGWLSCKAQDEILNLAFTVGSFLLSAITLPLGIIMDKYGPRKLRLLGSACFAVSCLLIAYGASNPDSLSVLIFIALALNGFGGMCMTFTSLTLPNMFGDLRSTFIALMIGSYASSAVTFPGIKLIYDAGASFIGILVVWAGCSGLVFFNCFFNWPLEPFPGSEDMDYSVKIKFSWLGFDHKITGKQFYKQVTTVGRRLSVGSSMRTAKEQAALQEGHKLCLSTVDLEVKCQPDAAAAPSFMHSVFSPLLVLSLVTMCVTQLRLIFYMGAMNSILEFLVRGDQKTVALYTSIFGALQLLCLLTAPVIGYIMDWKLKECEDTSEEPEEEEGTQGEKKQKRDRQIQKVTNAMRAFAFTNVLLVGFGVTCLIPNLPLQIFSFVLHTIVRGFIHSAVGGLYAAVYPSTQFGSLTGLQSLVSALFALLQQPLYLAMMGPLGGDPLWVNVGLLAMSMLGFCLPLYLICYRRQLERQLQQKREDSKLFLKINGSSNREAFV

As for `CC(C)CC(C)N` (centres unmarked) [1,3-dimethyl-n-butylamine], on human LAT3 [1] (setting [6]), the “inhibitory effect on the LAT3 mediated 14C-leucine uptake” value is “significant inhibitory activity”.

In the case of `NC1(C(=O)O)CC2CCC1C2` (centres unmarked) [BCH, 2-aminobicyclo-(2,2,1)-heptane-2-carboxylic acid], the “inhibitory effect on the LAT3 mediated 14C-leucine uptake” value at human LAT3 [1] (setting [6]) is “strong inhibition”. Further, at mouse LAT4 [2], the “inhibitory effect on the LAT4 mediated 14C-leucine uptake” value was “strong inhibition”. Turning to `N[C@H](Cc1c[nH]cn1)C(=O)O` [D-histidine], the “inhibitory effect on the LAT4 mediated 14C-leucine uptake” value on mouse LAT4 [2] is given as “relatively strong inhibitory effect”. In the case of `CC(C)C[C@@H](N)C(=O)O` [D-leucine], on mouse LAT4 [3], the “uptake of radiolabeled substrate into oocytes expressing mouse LAT4” value is on record as “significant uptake”. The “inhibitory effect on the LAT3 mediated 14C-leucine uptake” value against human LAT3 [1] (setting [6]) was “relatively strong inhibitory effect”. The “inhibitory effect on the LAT4 mediated 14C-leucine uptake” value against mouse LAT4 [2] is given as “relatively strong inhibitory effect”. The “uptake of radiolabeled substrate into oocytes expressing human LAT3” value on human LAT3 [4] is “significant uptake”. For the compound `CSCC[C@@H](N)C(=O)O` [D-methionine], the “inhibitory effect on the LAT4 mediated 14C-leucine uptake” value against mouse LAT4 [2] is on record as “relatively strong inhibitory effect”. For the compound `CC(C)CCN` [Isopentylamine, isopentylamine], on human LAT3 [1] (setting [6]), the “inhibitory effect on the LAT3 mediated 14C-leucine uptake” value is reported as “significant inhibitory activity”. On to `CC[C@H](C)[C@H](N)C(=O)O` [L-isoleucine], for which the “uptake of radiolabeled substrate into oocytes expressing mouse LAT4” value on mouse LAT4 [3] is recorded as “a large amount of uptake”. The “inhibitory effect on the LAT3 mediated 14C-leucine uptake” value against human LAT3 [1] (setting [6]) is recorded as “strong cis-inhibitory effect”. The “inhibitory effect on the LAT4 mediated 14C-leucine uptake” value against mouse LAT4 [2] was “strong cis-inhibitory effect”. Moreover, the “uptake of radiolabeled substrate into oocytes expressing human LAT3” value on human LAT3 [4] was “a large amount of uptake”. As to `CSCC[C@H](N)C(=O)O` [L-methionine], the “uptake of radiolabeled substrate into oocytes expressing mouse LAT4” value on mouse LAT4 [3] is “a large amount of uptake”. Also, the “inhibitory effect on the LAT3 mediated 14C-leucine uptake” value against human LAT3 [1] is listed as “strong cis-inhibitory effect”. At mouse LAT4 [2], the “inhibitory effect on the LAT4 mediated 14C-leucine uptake” value was “strong cis-inhibitory effect”. Moreover, the “uptake of radiolabeled substrate into oocytes expressing human LAT3” value on human LAT3 [4] is “small but significant uptake”. Take `N[C@@H](Cc1ccccc1)C(=O)O` [L-phenylalanine]: the “uptake of radiolabeled substrate into oocytes expressing mouse LAT4” value on mouse LAT4 [3] was “a large amount of uptake”. Also, the “inhibitory effect on the LAT3 mediated 14C-leucine uptake” value on human LAT3 [1] (setting [6]) was “strong cis-inhibitory effect”. Further, the “inhibitory effect on the LAT4 mediated 14C-leucine uptake” value on mouse LAT4 [2] is on record as “strong cis-inhibitory effect”. Also, the “uptake of radiolabeled substrate into oocytes expressing human LAT3” value on human LAT3 [4] is reported as “a large amount of uptake”. Turning to `O=C(O)[C@@H]1CCCN1` [L-proline], the “inhibitory effect on the LAT3 mediated 14C-leucine uptake” value against human LAT3 [1] (setting [6]) is “did not affect”. In addition, the “inhibitory effect on the LAT4 mediated 14C-leucine uptake” value on mouse LAT4 [2] is on record as “did not affect”. Further, the “uptake of radiolabeled substrate into oocytes expressing human LAT3” value on human LAT3 [4] is “small but significant uptake”. In the case of `CC(C)[C@H](N)C(=O)O` [L-valine], on mouse LAT4 [3], the “uptake of radiolabeled substrate into oocytes expressing mouse LAT4” value is on record as “a large amount of uptake”. The “inhibitory effect on the LAT3 mediated 14C-leucine uptake” value against human LAT3 [1] (setting [6]) is given as “strong cis-inhibitory effect”. In addition, the “inhibitory effect on the LAT4 mediated 14C-leucine uptake” value on mouse LAT4 [2] is recorded as “strong cis-inhibitory effect”. Further, at human LAT3 [4], the “uptake of radiolabeled substrate into oocytes expressing human LAT3” value is listed as “a large amount of uptake”. As for `CC(=O)N[C@@H](CC(C)C)C(=O)O` [N-acetyl-leucine, N-acetyl-L-leucine], at human LAT3 [1] (setting [6]), the “inhibitory effect on the LAT3 mediated 14C-leucine uptake” value was “significant inhibitory activity”. With `CCN1C(=O)C=CC1=O` [N-ethylmaleimide], on human LAT3 [5], the “effect on 14C-L-leucine uptake mediated by human LAT3” value is given as “completely abolished; also recorded: inhibited”. The “effect on 14C-L-leucine uptake mediated by LAT1” value in the assay with LAT1 is “did not affect”. As to `N=C(N)NCCC[C@H](N)C(=O)O` [arginine], at human LAT3 [1] (setting [6]), the “inhibitory effect on the LAT3 mediated 14C-leucine uptake” value is given as “did not affect”. For the same compound, the “inhibitory effect on the LAT4 mediated 14C-leucine uptake” value against mouse LAT4 [2] was “did not affect”. `N[C@@H](CC(=O)O)C(=O)O` [aspartic acid]: the “inhibitory effect on the LAT3 mediated 14C-leucine uptake” value against human LAT3 [1] (setting [6]) is “did not affect”. On mouse LAT4 [2], the “inhibitory effect on the LAT4 mediated 14C-leucine uptake” value is recorded as “did not affect”.

`N[C@@H](CCC(=O)O)C(=O)O` [glutamic acid]: at human LAT3 [1] (setting [6]), the “inhibitory effect on the LAT3 mediated 14C-leucine uptake” value is “did not affect”. In addition, the “inhibitory effect on the LAT4 mediated 14C-leucine uptake” value at mouse LAT4 [2] is listed as “did not affect”. As to `COc1ccc2c(c1)c(CC(=O)O)c(C)n2C(=O)c1ccc(Cl)cc1` [indomethacin], on human LAT3 [1] (setting [6]), the “inhibitory effect on the LAT3 mediated 14C-leucine uptake” value is “strong inhibitory effect”.

Consider `CC(C)CN` [isobutylamine], for which the “inhibitory effect on the LAT3 mediated 14C-leucine uptake” value against human LAT3 [1] (setting [6]) is “significant inhibitory activity”. With `COC(=O)[C@@H](N)CC(C)C` [leucine methylester, L-leucine-methylester], the “inhibitory effect on the LAT3 mediated 14C-leucine uptake” value on human LAT3 [1] (setting [6]) was “significant inhibitory activity”.

On to `CC(C)C[C@H](N)CO` [leucinol, L-leucinol], for which the “inhibitory effect on the LAT3 mediated 14C-leucine uptake” value against human LAT3 [1] (setting [6]) is recorded as “strongly inhibited”.

Consider `NCCCC[C@H](N)C(=O)O` [lysine], for which, at human LAT3 [1] (setting [6]), the “inhibitory effect on the LAT3 mediated 14C-leucine uptake” value was “did not affect”. At mouse LAT4 [2], the “inhibitory effect on the LAT4 mediated 14C-leucine uptake” value was “did not affect”. With `C[C@@H]1Cc2c(Cl)cc(C(=O)N[C@@H](Cc3ccccc3)C(=O)O)c(O)c2C(=O)O1` [ochratoxin A], on human LAT3 [1] (setting [6]), the “inhibitory effect on the LAT3 mediated 14C-leucine uptake” value is reported as “strong inhibitory effect; also recorded: strongly inhibited”.

In the case of `N[C@H](CO)Cc1ccccc1` [phenylalaninol, L-phenylalaninol], the “inhibitory effect on the LAT3 mediated 14C-leucine uptake” value against human LAT3 [1] (setting [6]) is given as “relatively strong inhibitory effects; also recorded: strongly inhibited”. With `NCCc1ccccc1` [phenylethylamine, 2-phenylethylamine], the “inhibitory effect on the LAT3 mediated 14C-leucine uptake” value on human LAT3 [1] (setting [6]) was “significant inhibitory activity”. Still for that read-out and setting: as for `CCCN(CCC)S(=O)(=O)c1ccc(C(=O)O)cc1` [probenecid], the entry is “weak but significant inhibitory effects”; as for `O=C(O)c1ccccc1O` [salicylic acid], “weak but significant inhibitory effects”; as for `CC(C)[C@H](N)CO` [valinol, L-valinol], “relatively strong inhibitory effects”.
